According to US20050169981A1, “Solid compositions comprising ramipril” (priority 2001, published 2005):

Assay: Stability of capsules stored at 50° C. for one week, degradation products by HPLC
Type: physicochemical
Details: starting ramipril, before encapsulation and storage
Procedure: For each of the 4 examples, the ingredients in the proportions shown were mixed together. The powder mixture was then passed through a #60 screen and mixed again. The powder mixture was then filled into size 4 two-piece hard gelatin capsules as a net fill of 150 mg per capsules, so that each capsule contained 1.25 mg of ramipril. Capsules of each of the examples were stored at 50° C. for one week and then tested by a high-performance liquid chromatographic method (HPLC) to determine the degradation products as a percentage of the ramipril content.

Compound: CCOC(=O)[C@H](CCc1ccccc1)N[C@@H](C)C(=O)N1[C@H](C(=O)O)C[C@@H]2CCC[C@@H]21 [ramipril, Ramipril]
- level of degradation products in the ramipril used to make the capsules: 0.29%
